Assay [1] deals with Ras and Rab interactor 1/Tyrosine-protein kinase ABL1 (Homo sapiens, UniProt P00519+Q13671). It is filed as functional.
For assay [2], the target named is T1, Heat shock factor protein 1 (Mus musculus, UniProt P38532).
T1 sequence (P38532 whole entry): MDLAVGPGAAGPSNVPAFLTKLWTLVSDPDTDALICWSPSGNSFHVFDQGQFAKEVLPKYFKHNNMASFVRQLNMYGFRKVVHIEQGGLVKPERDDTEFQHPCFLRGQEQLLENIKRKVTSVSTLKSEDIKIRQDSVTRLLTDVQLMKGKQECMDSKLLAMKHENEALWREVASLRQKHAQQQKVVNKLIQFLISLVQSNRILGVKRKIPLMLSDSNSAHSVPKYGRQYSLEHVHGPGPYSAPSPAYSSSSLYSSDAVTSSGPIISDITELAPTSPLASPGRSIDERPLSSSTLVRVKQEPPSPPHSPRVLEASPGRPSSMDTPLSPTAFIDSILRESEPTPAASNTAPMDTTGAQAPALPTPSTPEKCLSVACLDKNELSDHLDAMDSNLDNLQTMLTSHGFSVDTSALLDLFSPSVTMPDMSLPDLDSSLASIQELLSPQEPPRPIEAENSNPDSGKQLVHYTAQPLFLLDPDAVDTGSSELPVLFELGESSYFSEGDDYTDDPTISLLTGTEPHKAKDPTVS
The experiment in a line: decrease of HSF1-responsive luciferase luminescence – cell-based, NIH3T3, dose retest, confirmation (AID 2382).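 Also: NIH3T3 fibroblasts with HSF1-driven luciferase reporter stressed by proteasome inhibitor MG132; luminescence from HSF1-driven luciferase expression after 8 hours of MG132 stress.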 The class given is functional.

A further assay has as its target Beta-galactosidase (Escherichia coli, UniProt Q8VNN2). Description: PubChem AID 485352. The class given is functional.
Assay [3] concerns the target T2, Type-1 angiotensin II receptor (Homo sapiens, UniProt P30556).
T2 sequence (P30556 whole entry): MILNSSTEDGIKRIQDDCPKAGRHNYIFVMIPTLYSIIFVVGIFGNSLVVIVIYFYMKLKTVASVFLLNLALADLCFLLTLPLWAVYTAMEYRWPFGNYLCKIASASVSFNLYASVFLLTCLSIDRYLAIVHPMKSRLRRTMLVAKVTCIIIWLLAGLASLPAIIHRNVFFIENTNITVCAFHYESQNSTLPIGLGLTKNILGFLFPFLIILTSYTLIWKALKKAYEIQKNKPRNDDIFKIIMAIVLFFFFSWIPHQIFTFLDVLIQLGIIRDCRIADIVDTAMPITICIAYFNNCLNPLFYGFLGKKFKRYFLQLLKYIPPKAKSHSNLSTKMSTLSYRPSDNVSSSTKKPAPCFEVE
Description: antagonism of angiotensin II type 1 receptor – cell-based, uHTS hits, selectivity assay for APJ receptor antagonist project, dose response (AID 463214).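 Also: antagonist potency against angiotensin II stimulated AT1 response.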 It is filed as functional.

Assay [4] addresses T3, Endoribonuclease toxin MazF (Escherichia coli K-12, UniProt P0AE70).
T3 sequence (P0AE70 whole entry): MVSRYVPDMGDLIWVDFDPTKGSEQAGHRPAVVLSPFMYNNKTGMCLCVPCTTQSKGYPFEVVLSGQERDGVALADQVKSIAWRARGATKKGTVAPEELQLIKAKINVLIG
The experiment in a line: activation of MazEF endoribonuclease cleavage – biochemical, fluorescence, single-stranded RNA substrate, uHTS hits, dose response (AID 588481). It is filed as functional.

The target of assay [5] is T4, Insulin-degrading enzyme (Homo sapiens, UniProt P14735).
T4 sequence (P14735 whole entry): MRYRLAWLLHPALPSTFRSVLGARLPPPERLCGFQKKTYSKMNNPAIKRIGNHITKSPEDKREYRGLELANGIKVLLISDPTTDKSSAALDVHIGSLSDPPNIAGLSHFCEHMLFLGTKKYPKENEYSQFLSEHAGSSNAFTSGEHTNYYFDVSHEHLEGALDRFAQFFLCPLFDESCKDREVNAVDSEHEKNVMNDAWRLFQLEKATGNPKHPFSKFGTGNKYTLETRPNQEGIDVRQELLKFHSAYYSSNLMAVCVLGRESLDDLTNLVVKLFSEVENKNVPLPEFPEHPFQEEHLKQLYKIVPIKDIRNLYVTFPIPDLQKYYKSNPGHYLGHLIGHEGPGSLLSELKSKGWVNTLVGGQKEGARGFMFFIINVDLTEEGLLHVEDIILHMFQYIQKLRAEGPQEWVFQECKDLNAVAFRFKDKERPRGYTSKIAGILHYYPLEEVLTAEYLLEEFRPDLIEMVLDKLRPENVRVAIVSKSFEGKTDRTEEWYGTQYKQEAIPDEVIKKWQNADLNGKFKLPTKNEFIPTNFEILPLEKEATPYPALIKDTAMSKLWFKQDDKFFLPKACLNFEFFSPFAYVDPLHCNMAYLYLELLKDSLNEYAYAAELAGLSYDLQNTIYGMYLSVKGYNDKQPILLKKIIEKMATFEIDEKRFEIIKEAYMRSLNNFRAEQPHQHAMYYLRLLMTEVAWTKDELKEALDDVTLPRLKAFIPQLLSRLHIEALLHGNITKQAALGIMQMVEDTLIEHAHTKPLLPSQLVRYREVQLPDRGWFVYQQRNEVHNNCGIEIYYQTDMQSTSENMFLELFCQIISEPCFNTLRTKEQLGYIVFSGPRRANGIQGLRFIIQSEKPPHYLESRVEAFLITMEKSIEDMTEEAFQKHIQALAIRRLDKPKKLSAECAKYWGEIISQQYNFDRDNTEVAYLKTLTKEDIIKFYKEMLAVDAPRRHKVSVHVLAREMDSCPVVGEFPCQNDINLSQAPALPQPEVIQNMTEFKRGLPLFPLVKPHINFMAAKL
The experiment in a line: cellular IDE activation of Abeta substrate cleavage – fluorescence polarization, HEK cells, dose response (AID 588439). The class given is functional, cell-based. (In general: Fluorescence polarisation rises when a labelled molecule tumbles more slowly, as on binding a larger partner.)

In assay [6] the test system is HEK293. The experiment in a line: membrane integrity loss in HEK cells – cell-based, fluorescence, cytotoxicity control for IDE activator project, dose response (AID 588440).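 Also: cytotoxicity by LDH release measuring loss of membrane integrity.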 The settings on record: Homo sapiens. It is filed as functional.
The target in assay [7] is T3, Endoribonuclease toxin MazF. Description: substrate-only fluorescence increase artefacts – biochemical, single-stranded RNase substrate, counter-screen for MazEF activator project, dose response (AID 588502). It is filed as functional.
In assay [8] the test system is HEK293. The experiment in a line: optical interference in Abeta FP readout, dose response, artefact control for IDE activator project, biochemical, fluorescence polarization (AID 588442). The class given is functional, cell-based. The following applies: Homo sapiens.
A further assay addresses Cytochrome P450 3A4 (Homo sapiens, UniProt P08684). The following applies: Potency.
For assay [9], the target named is T4, Insulin-degrading enzyme. The experiment in a line: recombinant IDE activation, cell-free – biochemical, fluorescence polarization, counter-screen for IDE activator project, dose response (AID 588681).
A short description of assay [10]: cAMP pathway inhibition in counterscreen cell line – TR-FRET cAMP detection, counter-screen for MC4R biased antagonist project, dose response (AID 602305).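 Also: U2OS cells stimulated with forskolin near its EC80 as the cAMP inducer; potency is for inhibition of forskolin-stimulated cAMP signaling.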 The class given is functional, cell-based. In general terms: A counterscreen serves to expose hits that act by an unwanted route or on another target.
For the next assay, the target named is Melanocortin receptor 4 (Homo sapiens, UniProt P32245). The experiment in a line: inhibitors of MC4R cAMP signaling – cell-based, TR-FRET, biased antagonists, dose response (AID 602298).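 Also: antagonist potency against agonist-stimulated cAMP production.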 The class given is functional. On the technique in general: TR-FRET usually uses a lanthanide donor and a delayed reading to cut background.
Assay [11] deals with Tyrosine-protein phosphatase non-receptor type 5 (Homo sapiens, UniProt P54829). The experiment in a line: PTPN5 enzyme inhibition – biochemical, fluorescence intensity, uHTS hits, confirmation (AID 602372). The settings on record: read-out: IC50_Mean. The class given is functional.
Assay [12] has as its target Dual specificity protein phosphatase 3 (Homo sapiens, UniProt P51452). The experiment in a line: VHR phosphatase inhibition, dose response, selectivity assay for STEP inhibitor project, biochemical (AID 602374). The class given is functional. The settings on record: read-out: IC50_Mean.
Assay [13] has as its target Tyrosine-protein phosphatase non-receptor type 11 (Homo sapiens, UniProt Q06124). Description: PTPN11 enzyme inhibitors – biochemical, selectivity assay for STEP inhibitor project, dose response (AID 602367). The class given is functional. The settings on record: read-out: IC50_Mean.

The source made the active and inactive calls.
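For AC50 in this document: confirmatory qHTS run detecting inhibitors and substrates of CYP3A4.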

Sequence of Cytochrome P450 3A4 (P08684 whole entry): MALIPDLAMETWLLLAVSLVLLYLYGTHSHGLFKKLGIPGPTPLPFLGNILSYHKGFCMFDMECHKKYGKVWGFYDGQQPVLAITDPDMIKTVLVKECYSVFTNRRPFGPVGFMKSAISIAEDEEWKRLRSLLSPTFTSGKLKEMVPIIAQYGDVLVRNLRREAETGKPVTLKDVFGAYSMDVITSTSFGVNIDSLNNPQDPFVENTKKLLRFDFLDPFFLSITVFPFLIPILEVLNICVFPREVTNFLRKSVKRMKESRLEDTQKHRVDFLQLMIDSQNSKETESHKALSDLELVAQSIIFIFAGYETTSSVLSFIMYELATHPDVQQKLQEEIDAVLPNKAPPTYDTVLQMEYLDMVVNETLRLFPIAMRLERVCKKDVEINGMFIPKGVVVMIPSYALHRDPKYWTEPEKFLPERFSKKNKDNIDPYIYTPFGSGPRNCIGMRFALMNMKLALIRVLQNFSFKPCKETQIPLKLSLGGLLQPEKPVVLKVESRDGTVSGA
Sequence of Tyrosine-protein phosphatase non-receptor type 11 (Q06124 whole entry): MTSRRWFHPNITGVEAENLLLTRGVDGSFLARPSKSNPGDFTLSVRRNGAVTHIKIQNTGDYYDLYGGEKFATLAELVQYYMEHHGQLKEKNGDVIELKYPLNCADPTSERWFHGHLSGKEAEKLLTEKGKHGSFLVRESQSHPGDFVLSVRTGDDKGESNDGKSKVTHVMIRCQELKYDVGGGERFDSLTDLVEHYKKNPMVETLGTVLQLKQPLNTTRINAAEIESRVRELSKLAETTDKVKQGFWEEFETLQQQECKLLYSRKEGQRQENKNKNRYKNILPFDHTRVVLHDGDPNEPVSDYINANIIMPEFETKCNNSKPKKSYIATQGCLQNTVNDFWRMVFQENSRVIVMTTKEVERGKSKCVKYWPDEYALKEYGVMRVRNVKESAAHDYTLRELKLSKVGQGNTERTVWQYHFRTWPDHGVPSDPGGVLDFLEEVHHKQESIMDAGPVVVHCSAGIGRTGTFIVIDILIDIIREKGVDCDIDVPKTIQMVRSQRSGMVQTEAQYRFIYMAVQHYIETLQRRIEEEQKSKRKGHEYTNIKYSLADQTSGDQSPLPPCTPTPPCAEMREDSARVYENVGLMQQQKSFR
Sequence of Dual specificity protein phosphatase 3 (P51452 whole entry): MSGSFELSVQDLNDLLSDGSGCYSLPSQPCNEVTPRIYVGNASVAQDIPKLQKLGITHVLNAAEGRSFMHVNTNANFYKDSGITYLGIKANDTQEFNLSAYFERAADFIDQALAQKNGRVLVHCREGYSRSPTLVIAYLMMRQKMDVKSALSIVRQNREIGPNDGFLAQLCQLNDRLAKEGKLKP
Sequence of Ras and Rab interactor 1/Tyrosine-protein kinase ABL1 (P00519 whole entry): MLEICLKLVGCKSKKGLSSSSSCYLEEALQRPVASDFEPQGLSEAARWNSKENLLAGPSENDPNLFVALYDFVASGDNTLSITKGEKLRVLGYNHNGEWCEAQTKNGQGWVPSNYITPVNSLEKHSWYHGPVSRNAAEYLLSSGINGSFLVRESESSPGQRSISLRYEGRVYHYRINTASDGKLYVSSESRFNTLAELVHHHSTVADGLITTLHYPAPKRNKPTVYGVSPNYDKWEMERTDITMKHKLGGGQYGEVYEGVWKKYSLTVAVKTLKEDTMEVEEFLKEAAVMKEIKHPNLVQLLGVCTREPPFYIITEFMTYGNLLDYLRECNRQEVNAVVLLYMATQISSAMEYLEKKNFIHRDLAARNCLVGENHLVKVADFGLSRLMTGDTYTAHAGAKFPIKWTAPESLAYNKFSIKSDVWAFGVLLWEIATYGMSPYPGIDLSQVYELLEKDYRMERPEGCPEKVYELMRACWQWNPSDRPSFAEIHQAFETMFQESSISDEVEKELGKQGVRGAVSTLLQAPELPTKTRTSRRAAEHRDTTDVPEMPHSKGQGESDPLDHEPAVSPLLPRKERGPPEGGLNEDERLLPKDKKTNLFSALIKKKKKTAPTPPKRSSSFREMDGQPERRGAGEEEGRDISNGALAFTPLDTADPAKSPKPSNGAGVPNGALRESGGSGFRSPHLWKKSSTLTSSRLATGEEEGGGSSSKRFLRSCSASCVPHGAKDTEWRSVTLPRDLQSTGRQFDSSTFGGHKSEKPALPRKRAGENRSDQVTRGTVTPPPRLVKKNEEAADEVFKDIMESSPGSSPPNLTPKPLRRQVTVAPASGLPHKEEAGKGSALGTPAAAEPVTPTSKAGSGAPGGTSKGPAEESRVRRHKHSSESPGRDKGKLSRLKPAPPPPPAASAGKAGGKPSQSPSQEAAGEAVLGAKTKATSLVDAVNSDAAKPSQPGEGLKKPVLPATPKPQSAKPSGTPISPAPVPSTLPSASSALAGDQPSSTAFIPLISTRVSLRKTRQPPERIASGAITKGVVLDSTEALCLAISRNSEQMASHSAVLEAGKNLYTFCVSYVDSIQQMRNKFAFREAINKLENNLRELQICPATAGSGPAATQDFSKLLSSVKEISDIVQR
Sequence of Ras and Rab interactor 1/Tyrosine-protein kinase ABL1 (Q13671 whole entry): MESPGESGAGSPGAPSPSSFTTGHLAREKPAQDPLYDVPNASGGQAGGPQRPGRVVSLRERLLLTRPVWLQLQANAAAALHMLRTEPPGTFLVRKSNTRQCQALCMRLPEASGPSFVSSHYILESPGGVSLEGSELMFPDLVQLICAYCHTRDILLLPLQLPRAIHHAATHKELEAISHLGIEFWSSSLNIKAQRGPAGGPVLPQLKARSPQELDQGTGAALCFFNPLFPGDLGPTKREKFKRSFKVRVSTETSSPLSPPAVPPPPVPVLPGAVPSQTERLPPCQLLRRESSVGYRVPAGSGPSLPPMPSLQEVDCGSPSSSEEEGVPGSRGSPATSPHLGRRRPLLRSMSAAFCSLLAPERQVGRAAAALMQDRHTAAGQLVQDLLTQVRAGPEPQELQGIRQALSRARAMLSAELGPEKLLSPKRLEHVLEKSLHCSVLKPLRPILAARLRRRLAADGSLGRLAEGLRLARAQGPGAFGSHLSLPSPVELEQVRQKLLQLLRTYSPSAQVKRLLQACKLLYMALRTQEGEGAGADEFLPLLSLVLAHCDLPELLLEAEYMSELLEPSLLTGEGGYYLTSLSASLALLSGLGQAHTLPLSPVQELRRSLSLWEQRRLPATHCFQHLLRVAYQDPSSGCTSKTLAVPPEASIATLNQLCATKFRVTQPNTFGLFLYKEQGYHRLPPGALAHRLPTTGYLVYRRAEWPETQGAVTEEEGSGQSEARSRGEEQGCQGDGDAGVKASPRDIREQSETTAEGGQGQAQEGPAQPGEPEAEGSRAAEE
Sequence of Tyrosine-protein phosphatase non-receptor type 5 (P54829 whole entry): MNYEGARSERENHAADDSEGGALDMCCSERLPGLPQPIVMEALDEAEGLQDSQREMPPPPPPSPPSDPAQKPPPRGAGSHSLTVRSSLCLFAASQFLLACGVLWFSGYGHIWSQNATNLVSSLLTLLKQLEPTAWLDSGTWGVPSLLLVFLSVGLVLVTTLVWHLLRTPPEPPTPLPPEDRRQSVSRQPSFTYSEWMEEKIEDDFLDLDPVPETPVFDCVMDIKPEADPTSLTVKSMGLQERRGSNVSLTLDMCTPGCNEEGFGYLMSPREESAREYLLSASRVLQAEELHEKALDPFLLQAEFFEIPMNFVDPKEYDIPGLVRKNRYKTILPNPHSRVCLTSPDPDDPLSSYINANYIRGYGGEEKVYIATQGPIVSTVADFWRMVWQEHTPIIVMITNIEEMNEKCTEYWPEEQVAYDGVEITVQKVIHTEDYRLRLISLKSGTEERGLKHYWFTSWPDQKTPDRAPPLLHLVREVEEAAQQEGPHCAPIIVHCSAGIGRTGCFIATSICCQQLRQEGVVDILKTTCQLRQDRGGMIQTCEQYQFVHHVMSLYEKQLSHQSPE
Sequence of Beta-galactosidase (Q8VNN2 whole entry): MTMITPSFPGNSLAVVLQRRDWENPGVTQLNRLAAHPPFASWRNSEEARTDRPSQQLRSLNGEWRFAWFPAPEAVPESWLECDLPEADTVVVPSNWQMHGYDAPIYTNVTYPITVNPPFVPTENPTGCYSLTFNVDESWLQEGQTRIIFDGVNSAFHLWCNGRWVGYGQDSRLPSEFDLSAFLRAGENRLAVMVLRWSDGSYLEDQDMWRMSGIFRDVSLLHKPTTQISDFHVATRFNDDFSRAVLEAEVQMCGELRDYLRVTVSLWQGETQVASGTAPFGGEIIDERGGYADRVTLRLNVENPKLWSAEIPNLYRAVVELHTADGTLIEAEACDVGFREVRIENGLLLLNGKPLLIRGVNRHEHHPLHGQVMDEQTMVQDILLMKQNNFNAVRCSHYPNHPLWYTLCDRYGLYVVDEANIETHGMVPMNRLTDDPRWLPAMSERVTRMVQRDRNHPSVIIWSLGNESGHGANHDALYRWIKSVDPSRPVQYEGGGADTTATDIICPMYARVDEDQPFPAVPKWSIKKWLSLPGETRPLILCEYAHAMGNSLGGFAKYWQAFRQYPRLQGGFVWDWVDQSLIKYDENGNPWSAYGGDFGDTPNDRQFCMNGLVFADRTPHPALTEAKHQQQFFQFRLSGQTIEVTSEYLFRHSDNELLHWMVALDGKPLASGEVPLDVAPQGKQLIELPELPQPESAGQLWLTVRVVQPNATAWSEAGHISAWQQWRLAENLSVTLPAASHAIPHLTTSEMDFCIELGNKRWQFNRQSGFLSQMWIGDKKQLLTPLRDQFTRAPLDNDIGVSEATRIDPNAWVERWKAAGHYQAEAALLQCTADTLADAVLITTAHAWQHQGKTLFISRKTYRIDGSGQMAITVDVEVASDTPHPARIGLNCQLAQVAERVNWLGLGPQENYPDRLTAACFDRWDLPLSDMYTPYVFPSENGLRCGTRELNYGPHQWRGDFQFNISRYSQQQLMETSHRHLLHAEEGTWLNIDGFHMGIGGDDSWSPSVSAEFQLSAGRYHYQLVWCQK

Consider `CCCn1c2ccccc2c2nnc(SCc3[nH]c(O)nc3C(=O)CCCCC(=O)OCC)nc21`, for which the IC50 in assay [1] is 3.23 µM (active). The EC50 in assay [2] is reported as > 195 µM (not active).
As to `Cc1ccc(OCCN2C(=O)c3ccccc3C2=O)c([N+](=O)[O-])c1`, on Beta-galactosidase, the EC50 was > 40 µM (inactive). The IC50 in [3] was 9.04 µM (active).
For `Oc1ccc2c(c1)OCC1(O)Cc3cc(O)c(O)cc3C21` (stereo unspecified), the EC50 was > 99 µM (inactive) in assay [4]; > 54.7 µM (inactive) on Insulin-degrading enzyme [5]; 3.96 µM (active) in assay [7]; 53.6 µM (inactive) in the assay with HEK293 [8]; > 54.7 µM (inactive) on Insulin-degrading enzyme [9]. The IC50 with HEK293 [6] is 85.1 µM (inactive). In addition, the AC50 on Cytochrome P450 3A4 was 31.6 µM (inconclusive).
As for `Cc1sc2nc(CN3CCOCC3)nc(Cl)c2c1C`, the IC50 (in assay [10]; on Melanocortin receptor 4) was > 64.5 µM (inactive) throughout.
`Cc1ccc(-c2nc3ncccc3o2)cc1NC(=O)CC(C)C`: the IC50 in assay [11], in assay [12] and in [13] was > 80 µM (inactive) each time.

Usually EC50 stands for the concentration needed to bring the measured effect to its halfway point. In general, AC50 refers to the concentration giving half of the maximal activity seen.

These data come from ChEMBL document CHEMBL1201862, “PubChem BioAssay data set” (2004).
